Patent US10822348B2, “Inhibitors of Bruton's tyrosine kinase and methods of their use” (JANSSEN PHARMACEUTICA NV, priority 2015, dated 2020)

Target: unphosphorylated-BTK kinase domain (UP-BTK), GST-tagged human BTK (389-659aa) (Homo sapiens (Human), UniProt Q06187)
Assay: BTK kinase Lanthascreen binding assay
Description: BTK Kinase Lanthascreen Binding Assay:
A BTK kinase lanthascreen binding assay monitors compound binding to unphosphorylated-BTK kinase domain (UP-BTK), by competing with a fluorescent labeled tracer. […] Data were analyzed using Xlfit™ version 5.3 from ID Business Solutions (Guildford), Microsoft Excel add-in. pIC50 refers to the negative log of the IC50 in molar.

[1] = unphosphorylated-BTK kinase domain, 60 minutes incubation, pIC50 = negative log of the IC50 in molar
[2] = negative log of the IC50 in molar, 60 minutes incubation with 50 nM Tracer 236

Sequence of unphosphorylated-BTK kinase domain (UP-BTK), GST-tagged human BTK (389-659aa) (Q06187 389-659): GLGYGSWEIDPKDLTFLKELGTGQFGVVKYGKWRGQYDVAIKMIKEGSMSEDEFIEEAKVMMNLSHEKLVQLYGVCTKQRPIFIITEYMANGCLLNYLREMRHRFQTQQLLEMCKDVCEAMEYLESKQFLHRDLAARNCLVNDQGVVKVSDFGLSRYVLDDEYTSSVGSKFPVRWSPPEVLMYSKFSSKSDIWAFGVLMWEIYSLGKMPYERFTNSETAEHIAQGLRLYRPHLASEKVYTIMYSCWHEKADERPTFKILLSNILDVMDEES

| BTK_I_binding pIC50 [1] | BTK_I_binding pIC50 [2] | SMILES |
| --- | --- | --- |
| 7.2 |  | CCOC(C)(C)/C=C(\C#N)C(=O)N1CCC[C@@H](NC(=O)c2sc3nccc4c3c2NC(=O)N4c2ccc(Oc3ccccc3)cc2C)C1 (single isomer, unassigned) [Example 480, (R,*E)-N-(1-(2-Cyano-4-ethoxy-4-methylpent-2-enoyl)piperidin-3-yl)-5-(*R)-(2-methyl-4-phenoxyphenyl)-4-oxo-4,5-dihydro-3H-1-thia-3,5,8-triazaacenaphthylene-2-carboxamide] |
| 7.6 |  | CCOC(C)(C)/C=C(\C#N)C(=O)N1CCC[C@@H](NC(=O)c2sc3nccc4c3c2NC(=O)N4c2ccc(Oc3ccccc3)cc2C)C1 (single isomer, unassigned) [Example 487, (R,E)-N-(1-(2-Cyano-4-ethoxy-4-methylpent-2-enoyl)piperidin-3-yl)-5-(*S)-(2-methyl-4-phenoxyphenyl)-4-oxo-4,5-dihydro-3H-1-thia-3,5,8-triazaacenaphthylene-2-carboxamide] |
| 7.8 |  | C=CC(=O)N1CCC[C@@H](NC(=O)c2sc3nccc4c3c2NC(=O)N4c2ccc(OC(F)(F)F)cc2C)C1 (single isomer, unassigned) [Example 505, (R)—N-(1-Acryloylpiperidin-3-yl)-5-(*S)-(2-methyl-4-(trifluoromethoxy)phenyl)-4-oxo-4,5-dihydro-3H-1-thia-3,5,8-triazaacenaphthylene-2-carboxamide] |
| 7.8 |  | Cc1cc(Oc2ccccc2)ccc1N1C(=O)Nc2c(C(=O)N[C@@H]3CCCN(C(=O)/C=C/CN)C3)sc3nccc1c23 (single isomer, unassigned) [Example 511, (R,E)-N-(1-(4-Aminobut-2-enoyl)piperidin-3-yl)-5-(*S)-(2-methyl-4-phenoxyphenyl)-4-oxo-4,5-dihydro-3H-1-thia-3,5,8-triazaacenaphthylene-2-carboxamide] |
| 7.7 |  | Cc1cc(Oc2ccccc2)ccc1N1C(=O)Nc2c(C(=O)N[C@@H]3CCCN(C(=O)/C(C#N)=C/C4CC4)C3)sc3nccc1c23 (single isomer, unassigned) [Example 514, (R,E)-N-(1-(2-Cyano-3-cyclopropylacryloyl)piperidin-3-yl)-5-(*S)-(2-methyl-4-phenoxyphenyl)-4-oxo-4,5-dihydro-3H-1-thia-3,5,8-triazaacenaphthylene-2-carboxamide] |
| 7.6 |  | C=CC(=O)N1CC[C@H](NC(=O)c2sc3nccc4c3c2NC(=O)N4c2ccc(Oc3ccccc3)cc2C)C1 (single isomer, unassigned) [Example 518, (S)—N-(1-Acryloylpyrrolidin-3-yl)-5-(*S)-(2-methyl-4-phenoxyphenyl)-4-oxo-4,5-dihydro-3H-1-thia-3,5,8-triazaacenaphthylene-2-carboxamide] |
| 7.4 |  | Cc1cc(Oc2ccccc2)ccc1N1C(=O)Nc2c(C(=O)N[C@@H]3CCCN(C(=O)/C=C/CNS(C)(=O)=O)C3)sc3nccc1c23 (single isomer, unassigned) [Example 532, (R,E)-5-(*S)-(2-Methyl-4-phenoxyphenyl)-N-(1-(4-(methylsulfonamido)but-2-enoyl)piperidin-3-yl)-4-oxo-4,5-dihydro-3H-1-thia-3,5,8-triazaacenaphthylene-2-carboxamide] |
|  | 5.9 | C=CC(=O)N1CCC[C@@H](NC(=O)c2sc3nccc4c3c2NC(=O)N4c2ccc(OC(F)(F)F)cc2C)C1 (single isomer, unassigned) [Example 624, (R)—N-(1-Acryloylpiperidin-3-yl)-5-(*R)-(2-methyl-4-(trifluoromethoxy)phenyl)-4-oxo-4,5-dihydro-3H-1-thia-3,5,8-triazaacenaphthylene-2-carboxamide] |
|  | 8.3 | C=CC(=O)N1CCC[C@@H](NC(=O)c2sc3nccc4c3c2NC(=O)N4c2ccc(Oc3ccccc3)nc2C)C1 (single isomer, unassigned) [Example 661] |
|  | 8.1 | C=CC(=O)N1CCC[C@@H](NC(=O)c2sc3nccc4c3c2NC(=O)N4c2cnc(CC(C)C)cc2C)C1 (single isomer, unassigned) [Example 669, (R)—N-(1-Acryloylpiperidin-3-yl)-5-(*S)-(6-isobutyl-4-methylpyridin-3-yl)-4-oxo-4,5-dihydro-3H-1-thia-3,5,8-triazaacenaphthylene-2-carboxamide] |
|  | 7.2 | C=CC(=O)N1CCC[C@@H](NC(=O)c2sc3nccc4c3c2NC(=O)N4c2ccc(OC3CCOCC3)cc2C)C1 (single isomer, unassigned) [Example 675, (R)—N-(1-Acryloylpiperidin-3-yl)-5-(*R)-(2-methyl-4-((tetrahydro-2H-pyran-4-yl)oxy)phenyl)-4-oxo-4,5-dihydro-3H-1-thia-3,5,8-triazaacenaphthylene-2-carboxamide] |
|  | 7.6 | C=CC(=O)N1CCC[C@@H](NC(=O)c2sc3nccc4c3c2NC(=O)N4c2ccc(Oc3ccccc3)nc2C)C1 (single isomer, unassigned) [Example 690, (R)—N-(1-Acryloylpiperidin-3-yl)-5-(*R)-(2-methyl-6-phenoxypyridin-3-yl)-4-oxo-4,5-dihydro-3H-1-thia-3,5,8-triazaacenaphthylene-2-carboxamide] |
|  | 6.0 | C=CC(=O)N1CCC[C@@H](NC(=O)c2sc3nccc4c3c2NC(=O)N4c2cnc(Oc3ccccc3)cc2C)C1 (single isomer, unassigned) [Example 691, (R)—N-(1-Acryloylpiperidin-3-yl)-5-(*R)-(4-methyl-6-phenoxypyridin-3-yl)-4-oxo-4,5-dihydro-3H-1-thia-3,5,8-triazaacenaphthylene-2-carboxamide] |
|  | 8.0 | C=CC(=O)N1CC[C@@H](NC(=O)c2sc3nccc4c3c2NC(=O)N4c2ccc(Oc3ccccc3)nc2C)C1 (single isomer, unassigned) [Example 716, (R)—N-(1-Acryloylpyrrolidin-3-yl)-5-(*S)-(2-methyl-6-phenoxypyridin-3-yl)-4-oxo-4,5-dihydro-3H-1-thia-3,5,8-triazaacenaphthylene-2-carboxamide] |
|  | 6.4 | C=CC(=O)N1CCC[C@@H](NC(=O)c2sc3nccc4c3c2NC(=O)N4c2cnc(CC(C)C)cc2C)C1 (single isomer, unassigned) [Example 722, (R)—N-(1-Acryloylpiperidin-3-yl)-5-(*R)-(6-isobutyl-4-methylpyridin-3-yl)-4-oxo-4,5-dihydro-3H-1-thia-3,5,8-triazaacenaphthylene-2-carboxamide] |
|  | 5.8 | C=CC(=O)N1CCC[C@@H](NC(=O)c2sc3nccc4c3c2NC(=O)N4c2ccc(OC3CCOCC3)cc2C)C1 (single isomer, unassigned) [Example 742, (R)—N-(1-Acryloylpiperidin-3-yl)-5-(*S)-(2-methyl-4-((tetrahydro-2H-pyran-4-yl)oxy)phenyl)-4-oxo-4,5-dihydro-3H-1-thia-3,5,8-triazaacenaphthylene-2-carboxamide] |
|  | 7.5 | C=CC(=O)N1CC[C@@H](NC(=O)c2sc3nccc4c3c2NC(=O)N4c2cnc(CC(C)C)cc2C)C1 (single isomer, unassigned) [Example 747, (R)—N-(1-Acryloylpyrrolidin-3-yl)-5-(*S)-(6-isobutyl-4-methylpyridin-3-yl)-4-oxo-4,5-dihydro-3H-1-thia-3,5,8-triazaacenaphthylene-2-carboxamide] |
|  | <6 | C=CC(=O)N1CC[C@@H](NC(=O)c2sc3nccc4c3c2NC(=O)N4c2cnc(CC(C)C)cc2C)C1 (single isomer, unassigned) [Example 756, (R)—N-(1-Acryloylpyrrolidin-3-yl)-5-(*R)-(6-isobutyl-4-methylpyridin-3-yl)-4-oxo-4,5-dihydro-3H-1-thia-3,5,8-triazaacenaphthylene-2-carboxamide] |
|  | 6.5 | CCC(=O)N1CCC[C@@H](NC(=O)c2sc3nccc4c3c2NC(=O)N4c2cnc(CC(C)C)cc2C)C1 (single isomer, unassigned) [Example 765, (R)-5-(*S)-(6-Isobutyl-4-methylpyridin-3-yl)-4-oxo-N-(1-propionylpiperidin-3-yl)-4,5-dihydro-3H-1-thia-3,5,8-triazaacenaphthylene-2-carboxamide] |
|  | 8.1 | C=CC(=O)N1CC[C@@H](NC(=O)c2sc3nccc4c3c2NC(=O)N4c2cnc(OC3CCCC3)cc2C)C1 (single isomer, unassigned) [Example 776, (R)—N-(1-Acryloylpyrrolidin-3-yl)-5-(*S)-(6-(cyclopentyloxy)-4-methylpyridin-3-yl)-4-oxo-4,5-dihydro-3H-1-thia-3,5,8-triazaacenaphthylene-2-carboxamide] |

| SMILES | BTK_I_binding pIC50 [1] | BTK_I_binding pIC50 [2] |
| --- | --- | --- |
| C=CC(=O)N1CCC[C@@H](NC(=O)c2sc3nccc4c3c2NC(=O)N4c2cnc(OC3CCC3)cc2C)C1 (single isomer, unassigned) [Example 700, (R)—N-(1-Acryloylpiperidin-3-yl)-5-(*R)-(6-cyclobutoxy-4-methylpyridin-3-yl)-4-oxo-4,5-dihydro-3H-1-thia-3,5,8-triazaacenaphthylene-2-carboxamide] |  | 8.1 |
| C=CC(=O)N1CCC[C@@H](NC(=O)c2sc3nccc4c3c2NC(=O)N4c2cnc(OCC(C)C)cc2C)C1 (single isomer, unassigned) [Example 766, (R)—N-(1-Acryloylpiperidin-3-yl)-5-(*S)-(6-isobutoxy-4-methylpyridin-3-yl)-4-oxo-4,5-dihydro-3H-1-thia-3,5,8-triazaacenaphthylene-2-carboxamide] |  | 8.2 |
| C=CC(=O)N1CCC[C@@H](NC(=O)c2sc3nccc4c3c2NC(=O)N4c2cnc(OCC(C)C)cc2C)C1 (single isomer, unassigned) [Example 767, (R)—N-(1-Acryloylpiperidin-3-yl)-5-(*R)-(6-isobutoxy-4-methylpyridin-3-yl)-4-oxo-4,5-dihydro-3H-1-thia-3,5,8-triazaacenaphthylene-2-carboxamide] |  | <6 |
